# Experimental data: paper PMC8068820 (Viruses, 2021)
# Entries after “also recorded” stand apart in the source; their conditions may differ.
# Biological target: T1, human NTCP (Homo sapiens, UniProt Q14973)
# T1 construct: expressed in transfected cells
# T1 sequence (Q14973 1-349): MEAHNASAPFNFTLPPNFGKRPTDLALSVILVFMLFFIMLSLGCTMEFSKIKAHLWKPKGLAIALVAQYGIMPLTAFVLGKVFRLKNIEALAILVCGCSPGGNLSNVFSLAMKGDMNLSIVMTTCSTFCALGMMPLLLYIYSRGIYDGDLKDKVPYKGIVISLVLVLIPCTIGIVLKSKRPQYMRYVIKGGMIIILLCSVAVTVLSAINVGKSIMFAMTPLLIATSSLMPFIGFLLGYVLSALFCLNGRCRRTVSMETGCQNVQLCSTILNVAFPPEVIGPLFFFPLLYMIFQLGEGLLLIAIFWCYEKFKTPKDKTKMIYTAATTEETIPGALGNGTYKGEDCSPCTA
# Experiment: [3H]taurocholic acid ([3H]TC) transport inhibition in NTCP-HEK293 cells
# Assay type: cell-based
# Settings: 1 µM [3H]TC, NTCP-HEK293 cells; read-out: IC50 taurocholic acid uptake inhibition (single value)
row,Structure (SMILES),IC50 [µM]
1,COc1ccc([C@H](O)[C@H](c2ccccn2)[C@@H](Nc2ccccn2)c2ccccc2)cc1 [A000295231],780
2,O[C@H](c1ccc([C@@H](O)[C@@H](c2ccccn2)[C@H](Nc2ccccn2)c2ccccc2)cc1)[C@@H](c1ccccn1)[C@H](Nc1ccccn1)c1ccccc1 [S973509],490
3,O=Cc1cccc([C@@H]([C@H](Nc2ccccn2)c2ccccc2)[C@@H](O)c2ccccc2)n1 [S985852],24

# Same assay, conditions: 100 µM inhibitor, Figure 6
row,Structure (SMILES),[3H]TC uptake inhibition (in words)
1,O[C@@H](c1ccccc1)[C@H](c1ccccn1)[C@@H](Nc1ccccn1)c1ccccc1 [S957291],significantly increased the inhibitory potency

# Same assay, conditions: 95% confidence interval; inhibition of 1 µM [3H]TC uptake, NTCP-HEK293 cells, 10 min, 37 °C; read-out: IC50 ([3H]TC Uptake)
row,Structure (SMILES),IC50 [µM]
1,O=C(Nc1ccc(Cl)cc1)c1cc(Oc2ccc(Cl)cc2)ccc1NS(=O)(=O)c1ccc(Cl)cc1 [A000028897],16 to 62
2,O[C@@H](c1ccccc1)[C@@H](c1ccccn1)[C@H](Nc1ccccn1)c1cccc(Br)c1 [A000289041],> 1000
3,O[C@H](c1ccccc1)[C@@H](c1ccc2ccccc2n1)[C@H](Nc1ccccn1)c1ccccc1 [A000295013],> 1000
4,COc1ccc([C@H](O)[C@H](c2ccccn2)[C@@H](Nc2ccccn2)c2ccccc2)cc1 [A000295231],341 to 1220
5,COc1ccc(N[C@H](c2ccccc2)[C@H](c2ccccn2)[C@H](O)c2ccccc2)nc1 [A000295480],145 to 1320
6,O[C@H](c1ccc([C@@H](O)[C@@H](c2ccccn2)[C@H](Nc2ccccn2)c2ccccc2)cc1)[C@@H](c1ccccn1)[C@H](Nc1ccccn1)c1ccccc1 [S973509],202 to 775
7,O[C@@H](c1ccccc1)[C@@H](c1ccccn1)[C@H](Nc1ccccn1)c1cccc2ccccc12 [S973515],413 to 1240
8,O=Cc1cccc([C@@H]([C@H](Nc2ccccn2)c2ccccc2)[C@@H](O)c2ccccc2)n1 [S985852],13 to 34

# Test system: HDV
# Experiment: In vitro HDV infection of NTCP-HepG2 cells (HDAg immunostaining)
# Assay type: cell-based, Hepatitis D virus
# Settings: 5 µM to 300 µM
row,Structure (SMILES),inhibition of in vitro HDV infection (in words)
1,COc1ccc([C@H](O)[C@H](c2ccccn2)[C@@H](Nc2ccccn2)c2ccccc2)cc1 [A000295231],significant concentration-dependent inhibition; also recorded: active against in vitro HDV infection
2,O[C@H](c1ccc([C@@H](O)[C@@H](c2ccccn2)[C@H](Nc2ccccn2)c2ccccc2)cc1)[C@@H](c1ccccn1)[C@H](Nc1ccccn1)c1ccccc1 [S973509],significant concentration-dependent inhibition; also recorded: active against in vitro HDV infection
3,O=Cc1cccc([C@@H]([C@H](Nc2ccccn2)c2ccccc2)[C@@H](O)c2ccccc2)n1 [S985852],significant concentration-dependent inhibition; also recorded: active against in vitro HDV infection

# Biological target: T1, human NTCP
# Experiment: [3H]preS1 peptide
# Assay type: binding
# Settings: 5 nM [3H]preS1, NTCP-HEK293 cells; read-out: IC50 [3H]preS1 binding inhibition (single value)
row,Structure (SMILES),IC50 [µM]
1,O[C@H](c1ccccc1)[C@@H](c1ccc2ccccc2n1)[C@H](Nc1ccccn1)c1ccccc1 [A000295013],~130
2,COc1ccc([C@H](O)[C@H](c2ccccn2)[C@@H](Nc2ccccn2)c2ccccc2)cc1 [A000295231],17
3,O[C@H](c1ccc([C@@H](O)[C@@H](c2ccccn2)[C@H](Nc2ccccn2)c2ccccc2)cc1)[C@@H](c1ccccn1)[C@H](Nc1ccccn1)c1ccccc1 [S973509],7
4,O=Cc1cccc([C@@H]([C@H](Nc2ccccn2)c2ccccc2)[C@@H](O)c2ccccc2)n1 [S985852],~15

# Same assay, conditions: 100 µM inhibitor where from Figure 6; SAR statements
row,Structure (SMILES),[3H]preS1 binding inhibition (in words)
1,O[C@@H](c1ccccc1)[C@@H](c1ccccn1)[C@H](Nc1ccccn1)c1cccc(Br)c1 [A000289041],relatively high
2,O[C@H](c1ccc2ccccc2c1)[C@H](c1ccccn1)[C@@H](Nc1ccccn1)c1ccccc1 [A000294559],significant but less potent
3,O[C@H](c1ccccc1)[C@@H](c1ccccn1)[C@H](Nc1ccc(F)cn1)c1ccccc1 [A000295230],significant but less potent
4,COc1ccc([C@H](O)[C@H](c2ccccn2)[C@@H](Nc2ccccn2)c2ccccc2)cc1 [A000295231],even further improved the inhibitory potency
5,O[C@H](c1ccccc1)[C@@H](c1ccccn1)[C@H](Nc1ccccc1)c1ccccc1 [A000295238],inactive
6,COc1ccc(N[C@H](c2ccccc2)[C@H](c2ccccn2)[C@H](O)c2ccccc2)nc1 [A000295480],relatively high
7,Nc1ccc([C@H](O)[C@H](c2ccccn2)[C@@H](Nc2ccccn2)c2ccccc2)cc1 [A000295724],inactive
8,O[C@@H](c1ccccc1)[C@H](c1ccccn1)[C@@H](Nc1ccc(Cl)cn1)c1ccccc1 [A000296575],significant but less potent
9,Oc1cccc([C@H](O)[C@H](c2ccccn2)[C@@H](Nc2ccccn2)c2ccccc2)c1 [A000296584],"significant, but less active inhibitors"
10,O[C@@H](c1ccccc1)[C@@H](c1ccccn1)[C@H](Nc1ccccn1)c1ccsc1 [A000344053],significant but less potent
11,O[C@@H](c1ccccc1)[C@H](c1ccccn1)[C@@H](Nc1ccccn1)c1ccccc1 [S957291],significantly increased the inhibitory potency
12,O[C@@H](c1cccnc1)[C@H](c1ccccn1)[C@@H](Nc1ccccn1)c1ccccc1 [S958009],inactive
13,COc1cccc([C@H](O)[C@H](c2ccccn2)[C@@H](Nc2ccccn2)c2ccccc2)c1 [S963601],"significant, but less active inhibitors"
14,O[C@@H](c1ccccc1)[C@@H](c1ccccn1)[C@H](Nc1ccccn1)c1cccc2ccccc12 [S973515],relatively high

# Same assay, conditions: 100 µM inhibitor, 5 nM [3H]preS1, pre-screen; read-out: remaining [3H]preS1 binding compared to untreated control
row,Structure (SMILES),remaining activity at 100 µM [%]
1,O=C(Nc1ccc(Cl)cc1)c1cc(Oc2ccc(Cl)cc2)ccc1NS(=O)(=O)c1ccc(Cl)cc1 [A000028897],< 50
2,O[C@@H](c1ccccc1)[C@@H](c1ccccn1)[C@H](Nc1ccccn1)c1cccc(Br)c1 [A000289041],< 50
3,O[C@H](c1ccccc1)[C@@H](c1ccc2ccccc2n1)[C@H](Nc1ccccn1)c1ccccc1 [A000295013],< 50
4,COc1ccc([C@H](O)[C@H](c2ccccn2)[C@@H](Nc2ccccn2)c2ccccc2)cc1 [A000295231],< 50
5,COc1ccc(N[C@H](c2ccccc2)[C@H](c2ccccn2)[C@H](O)c2ccccc2)nc1 [A000295480],< 50
6,O[C@H](c1ccc([C@@H](O)[C@@H](c2ccccn2)[C@H](Nc2ccccn2)c2ccccc2)cc1)[C@@H](c1ccccn1)[C@H](Nc1ccccn1)c1ccccc1 [S973509],< 50
7,O[C@@H](c1ccccc1)[C@@H](c1ccccn1)[C@H](Nc1ccccn1)c1cccc2ccccc12 [S973515],< 50
8,O=Cc1cccc([C@@H]([C@H](Nc2ccccn2)c2ccccc2)[C@@H](O)c2ccccc2)n1 [S985852],< 50

# Same assay, conditions: 100 µM inhibitor, 5 nM [3H]preS1; read-out: inhibition of [3H]preS1 peptide binding
row,Structure (SMILES),inhibition at 100 µM [%]
1,O[C@H](c1ccc2ccccc2c1)[C@H](c1ccccn1)[C@@H](Nc1ccccn1)c1ccccc1 [A000294559],≤ 50
2,O[C@H](c1ccccc1)[C@@H](c1ccccn1)[C@H](Nc1ccc(F)cn1)c1ccccc1 [A000295230],≤ 50
3,O[C@@H](c1ccccc1)[C@H](c1ccccn1)[C@@H](Nc1ccc(Cl)cn1)c1ccccc1 [A000296575],≤ 50
4,O[C@@H](c1ccccc1)[C@@H](c1ccccn1)[C@H](Nc1ccccn1)c1ccsc1 [A000344053],≤ 50

# Same assay, conditions: 95% confidence interval; inhibition of 5 nM [3H]preS1 binding, NTCP-HEK293 cells, 10 min, 37 °C; read-out: IC50 ([3H]preS1 Binding)
row,Structure (SMILES),IC50 [µM]
1,O=C(Nc1ccc(Cl)cc1)c1cc(Oc2ccc(Cl)cc2)ccc1NS(=O)(=O)c1ccc(Cl)cc1 [A000028897],3 to 24
2,O[C@@H](c1ccccc1)[C@@H](c1ccccn1)[C@H](Nc1ccccn1)c1cccc(Br)c1 [A000289041],35 to 224
3,O[C@H](c1ccccc1)[C@@H](c1ccc2ccccc2n1)[C@H](Nc1ccccn1)c1ccccc1 [A000295013],73 to 194
4,COc1ccc([C@H](O)[C@H](c2ccccn2)[C@@H](Nc2ccccn2)c2ccccc2)cc1 [A000295231],4 to 29
5,COc1ccc(N[C@H](c2ccccc2)[C@H](c2ccccn2)[C@H](O)c2ccccc2)nc1 [A000295480],32 to 297
6,O[C@H](c1ccc([C@@H](O)[C@@H](c2ccccn2)[C@H](Nc2ccccn2)c2ccccc2)cc1)[C@@H](c1ccccn1)[C@H](Nc1ccccn1)c1ccccc1 [S973509],3 to 10
7,O[C@@H](c1ccccc1)[C@@H](c1ccccn1)[C@H](Nc1ccccn1)c1cccc2ccccc12 [S973515],39 to 148
8,O=Cc1cccc([C@@H]([C@H](Nc2ccccn2)c2ccccc2)[C@@H](O)c2ccccc2)n1 [S985852],8 to 24

# Same assay, conditions: [3H]preS1 binding versus [3H]TC uptake inhibition
row,Structure (SMILES),virus/preS1 selectivity (in words)
1,O=C(Nc1ccc(Cl)cc1)c1cc(Oc2ccc(Cl)cc2)ccc1NS(=O)(=O)c1ccc(Cl)cc1 [A000028897],more or less non-selective
2,COc1ccc([C@H](O)[C@H](c2ccccn2)[C@@H](Nc2ccccn2)c2ccccc2)cc1 [A000295231],some selectivity towards the virus receptor function of NTCP
3,COc1ccc(N[C@H](c2ccccc2)[C@H](c2ccccn2)[C@H](O)c2ccccc2)nc1 [A000295480],more or less non-selective
4,O[C@H](c1ccc([C@@H](O)[C@@H](c2ccccn2)[C@H](Nc2ccccn2)c2ccccc2)cc1)[C@@H](c1ccccn1)[C@H](Nc1ccccn1)c1ccccc1 [S973509],some selectivity towards the virus receptor function of NTCP
5,O=Cc1cccc([C@@H]([C@H](Nc2ccccn2)c2ccccc2)[C@@H](O)c2ccccc2)n1 [S985852],more or less non-selective

# Test system: NTCP-HepG2 cells
# Experiment: MTT cytotoxicity assay in NTCP-HepG2 cells
# Assay type: cell-based, human
# Settings: NTCP-HepG2 cells, 5, 50 and 300 µM, 6 h incubation
row,Structure (SMILES),Cytotoxicity (in words)
1,O=C(Nc1ccc(Cl)cc1)c1cc(Oc2ccc(Cl)cc2)ccc1NS(=O)(=O)c1ccc(Cl)cc1 [A000028897],obvious cytotoxicity even at low (5 µM) concentrations; also recorded: toxic
2,O=Cc1cccc([C@@H]([C@H](Nc2ccccn2)c2ccccc2)[C@@H](O)c2ccccc2)n1 [S985852],critical cytotoxicity at 300 µM
